{"source": "patent US20140356863A1", "about": "“METHODS FOR DETERMINING THE SUSCEPTIBILITY OF A VIRUS TO AN ATTACHMENT INHIBITOR” (BRISTOL-MYERS SQUIBB COMPANY, priority 2011, published 2014)", "key": {"HIV-1 NL4-3": {"test_system": "HIV-1 NL4-3", "experiment": "susceptibility of HIV-1 strains to an attachment inhibitor (IC50, inhibition of virus replication)", "type": "cell-based", "settings": "Human immunodeficiency virus 1, NL43; HIV-1 laboratory strain NL4-3", "from_the_text": "(§1) As used herein, “ICn” refers to Inhibitory Concentration. It is the concentration of drug in the patient's blood or in vitro needed to suppress the reproduction of a disease-causing virus (such as HIV) by n %. Thus, “IC50” refers to the concentration of an anti-viral agent at which virus replication is inhibited by 50% of the level observed in the absence of the drug.\n(§2) Two laboratory strains of HIV-1 were used in this assay."}, "HIV-1 RF strain": {"test_system": "HIV-1 RF strain", "experiment": "susceptibility of HIV-1 strains to an attachment inhibitor (IC50, inhibition of virus replication)", "type": "cell-based", "settings": "Human immunodeficiency virus 1; HIV-1 laboratory strain RF", "from_the_text": "as §1, §2"}, "[1]": {"test_system": "HIV-1 RF strain binding to sCD4-Fc", "experiment": "immunoassay: virus capture by sCD4-Fc on protein G beads, quantitated by p24 ELISA", "settings": "attachment inhibitor 0.5 uM, 15 min room temperature, FIG. 2", "procedure": "(§3) Two laboratory strains of HIV-1 were used in this assay, NL4-3, which is susceptible to the attachment inhibitor, the other is RF, which is insensitive to the action of the attachment inhibitor. The amount of virus present with and without attachment inhibitor (AI) is quantitated by a p24 ELISA.\n(§4) Virus stock was diluted to 1×10^4 TCID50 per ml in RPMI media with 10% fetal bovine serum (FBS). The attachment inhibitor (or DMSO) was added to a final concentration of 0.5 uM and the mixture incubated for 15 min at room temperature. Eighty microliters of sCD4-Fc (a recombinant protein containing the gp120 binding domain of CD4 connected to an immunoglobulin […]) at 5Oug/ml was added and incubated for an additional 30 min, with gentle rocking. Twenty microliters of protein G SEPHAROSE® beads (binding capacity of 200 ug IgG) was added and rocked at 4° C. for an additional 60 min. Unbound virus was removed by washing the beads 4 times with excess PBS. Virus captured on the beads was lysed with 0.5% Triton X-100 and the beads removed by centrifugation. The amount of virus present in the supernatant is quantitated by a p24 ELISA, according to the manufacturer's instructions (PerkinElmer NEK-050)."}, "[2]": {"test_system": "HIV-1 NL4-3 binding to sCD4-Fc", "experiment": "immunoassay: virus capture by sCD4-Fc on protein G beads, quantitated by p24 ELISA", "settings": "attachment inhibitor 0.5 uM, 15 min room temperature, FIG. 2", "procedure": "as §3, §4"}}}
{"smiles": "COc1cnc(-n2cnc(C)n2)c2[nH]cc(C(=O)C(=O)N3CCN(C(=O)c4ccccc4)CC3)c12", "note": "[attachment inhibitor, 1-(4-benzoyl-piperazin-1-yl)-2-[4-methoxy-7-(3-methyl-[1,2,4]triazol-1-yl)-1H-pyrralo[2,3-c]pyridine-3-yl]-ethane-1,2-dione]", "values": [{"measurement": "IC50", "setting": "HIV-1 NL4-3", "value": "2.2 ± 0.6", "unit": "nM"}, {"measurement": "IC50", "setting": "HIV-1 RF strain", "value": "> 2000", "unit": "nM"}, {"measurement": "amount of virus captured by sCD4-Fc (p24 ELISA) with attachment inhibitor versus DMSO", "setting": "[1]", "value": "no significant difference"}, {"measurement": "amount of virus captured by sCD4-Fc (p24 ELISA) with attachment inhibitor versus DMSO", "setting": "[2]", "value": "much less than when DMSO is used"}]}
